# Structures can show the parent of a compound that is named as a salt. Where two headings read alike, the source gives them in different places.
# Legend:
# Zucker fa/fa rat [1] = tested on: Zucker fa/fa rat
# Method: After eight weeks of treatment, Experiment I was concluded with all ten rats being anesthetized with pentobarbital (40 mg/kg, i.p). […] In addition to body weight, the heart, liver, epididymal fat and left kidney were weighed. The aorta and a portion of the medial lobe of the liver were fixed in buffered 10% formalin and prepared for paraffin embedding and sectioning for pathological analysis.
# [2] = tested on: liver of Zucker fa/fa rat; experiment: Experiment I: hepatic nucleotide analysis by HPLC of frozen-acid extracted liver; type: in vivo; settings: 12 weeks treatment
# Method: After eight weeks of treatment, Experiment I was concluded with all ten rats being anesthetized with pentobarbital (40 mg/kg, i.p). Immediately prior to the rat's euthanasia, a portion of the medial lobe of the liver was weighed, immediately frozen, pulverized and extracted in 12% perchloric acid in dry ice for nucleotide analysis. The acid extracted tissue was thawed, neutralized in saturated potassium bicarbonate and centrifuged at 10,000×g for 15 minutes. The final supernatant was analyzed for nucleotides by HPLC according to the method of Jenkins, et al (1988).
# Zucker fa/fa rat [3] = experiment: Experiment I: body weight and serum analysis of Zucker fa/fa rats given D,L-malic acid, sodium salt in drinking water; type: in vivo
# Zucker fa/fa rat [4] = experiment: as above; type: in vivo; set-up: Serum T Chol / Serum HDL / Serum LDL / Serum VLDL / Serum Glucose: unit not given here; settings: for Body Wt. / Serum Glucose / Serum HDL / Serum T Chol / Serum Triglyceride / Serum BUN / Serum Creatine / Serum K+ / Serum Na+ / Serum ALT / Serum AST / Serum LDL / Serum VLDL: mean ± SEM; for Body Wt.: in g; for Serum BUN / Serum Creatine: in mg/dL (unit assumed); for Serum K+ / Serum Na+: in mmol/L (unit assumed); for Serum ALT / Serum AST: in U/L (unit assumed); for Serum VLDL: calculated
# From the text: The Zucker fa/fa rat model was selected to test the effects of malic acid supplements to the diet. The Zucker fa/fa rat is a genetically obese rat associated to elevated leptin levels in the blood. Among humans and most animal models, leptin is known to […], leading to elevated caloric intake and obesity. Associated with the leptin production is an elevation in serum insulin (Giridharan 1998). Thus, obesity can arise from the increase food intake and/or the lipogenic effects of insulin on adipose tissue and liver.
# Two separate experiments were conducted on the Zucker fa/fa rat. The first experiment served as a pilot study for the second. In Experiment I, ten male, 7-week-old Zucker fa/fa rats were divided into two parametric groups based upon the results of a clinical serum analysis for lipids, glucose, hepatic enzymes, and ions. […] The control group of five rats received only tap water. After 2, 4, 7, and 10 and 12 weeks of treatment, 1-2 mL whole blood was collect from each rat via the tail caudal vein and the serum retained for analysis. All serum analysis was conducted in the out-patient clinical laboratory of the University Hospital of the University of Alabama at Birmingham with a Synchron LX System. The following methods for each parameter are used in their automated clinical systems.
# Zucker fa/fa rat [5] = settings: in vivo
# Method: (§1) In experiment II, forty male Zucker fa/fa rats at five to seven weeks of age began treatment similarly to the rats in Experiment I. At about 5 weeks of age, whole blood was collected from the tail caudal vein of each rat and lipid profiles were measured on the serum.
# (§2) Food and water consumption was measured daily for each cage of two rats. Body weight was measured and tail caudal vein blood samples were collected at 6, 8, 10, 12, 14, 16, and 18 and 24 weeks of age. Rats received their oral treatment of malic acid isomers prior to the onset of hyperlipidemia and continued for 16 weeks. The lipid/liver profile was measured on the serum of each rate with the determination of serum triglycerides, total cholesterol, HDL, glucose, AST and ALT with the same procedures of Experiment I.
# (§3) Experiment II. This follow-up experiment doubled the number of rats per group (ten/group) and included treatment groups to distinguish the roles of the D isomer and the L isomer of malic acid (Control, L-Malic, D,L-Malic, and D-Malic Acid).
# Zucker fa/fa rat [6] = experiment: Experiment II: L-, D,L- and D-malic acid in drinking water, food/water consumption, body weight, serum lipid/liver profile; settings: for linear slope of body weight versus serum triglycerides, vs control and L-malic acid treated rats: FIG. 3, p≦0.01; for effect on serum lipid levels (hypolipidemic effect): oral, Zucker obese rat, conclusion in words; for water consumption, means between groups: L-malic acid vs control at 10 and 11 weeks of treatment
# Method: as §1, §2, §3
# liver mitochondria = settings: for concentrations at which not metabolized by mitochondria: oxygen consumption, FIG. 5
# Method: To determine the effect of D-malic acid on hepatic mitochondria, mitochondria from the Sprague Dawley rat used for isoenzyme studies were prepared according to the method of Johnson and Lardy (1967). The […] pellet was resuspended in cold sucrose buffer and recentrifuged at 600×g. This supernatant was mixed with the original 600×g supernatant. The 10,000×g mitochondria pellet was suspended in 5 mL of sucrose buffer. […] Consumption of oxygen was represented as percent of oxygen saturation.
# [7] = after four and six weeks of treatment, but not beyond, P≦0.05
# [8] = −2 weeks Treatment (before dosing)
# [9] = after 18 and 24 weeks of treatment, P≦0.01
compound,measurement,setting,value
"O=C(O)CC(O)C(=O)O (racemic) [D,L-malic acid, D,L-malic acid, sodium salt]",histological examination of the aorta,Zucker fa/fa rat [1]; 12 week (20 weeks of age),no pathology associated with plaque formation
same,"Percent Fatty Deposition in Hepatocytes, Mean of 200 cells/rat ± SEM","Zucker fa/fa rat [1]; 12 week treated, liver sections 8 um",45.69 ± 0.62%
same,Mean Organ Weights: Epididymal Fat,"Zucker fa/fa rat [1]; 12 week treated, ± SEM",0.350 ± .050 gram
same,percent of fatty inclusions in hepatocytes vs control,"Zucker fa/fa rat [1]; 200 hepatocytes, liver sections 8 um",no significant differences
same,hepatic tissue NAD levels vs control,[2],elevated but not significantly
same,hepatic tissue levels of NADP vs control,[2],significantly elevated
same,mean hepatic purine nucleotides vs control,[2],No significant differences
same,Mean Hepatic Purine Dinucleotide Levels: NAD,[2]; ± SEM,350 ± 23 nmoles/gm tissue wet wt.
same,Mean Hepatic Purine Nucleotides Level: ADP,[2]; ± SEM,125 ± 7 nmoles/gm tissue wet wt.
same,Mean Hepatic Purine Nucleotides Level: AMP,[2]; ± SEM,168 ± 18 nmoles/gm tissue wet wt.
same,Mean Hepatic Purine Nucleotides Level: ATP,[2]; ± SEM,556 ± 35 nmoles/gm tissue wet wt.
same,Mean Hepatic Purine Nucleotides Level: Adenosine,[2]; ± SEM,65 nmoles/gm tissue wet wt.
same,Mean Hepatic Purine Dinucleotide Levels: NADP,"[2]; ± SEM, significantly different P ≦ 0.05",61.7 ± 3.8 nmoles/gm tissue wet wt.
same,serum HDL cholesterol vs control,"Zucker fa/fa rat [3]; after eight weeks of treatment, P≦0.05",significant decrease
same,serum AST vs control,Zucker fa/fa rat [3]; [7],significantly lowered
same,serum total cholesterol vs control,"Zucker fa/fa rat [3]; after six weeks of treatment, P≦0.05",significant decrease
same,serum triglyceride levels vs control,"Zucker fa/fa rat [3]; two to eight weeks of treatment, P≦0.01",significantly decreased
same,Body Wt.,Zucker fa/fa rat [4]; 0 weeks Treatment (start of dosing),484 ± 10
same,Serum Glucose,Zucker fa/fa rat [4]; 2 weeks Treatment,167 ± 14
same,Serum HDL,Zucker fa/fa rat [4]; 2 weeks Treatment,92 ± 4
same,Serum T Chol,Zucker fa/fa rat [4]; 2 weeks Treatment,96 ± 5
same,Serum Triglyceride,Zucker fa/fa rat [4]; 2 weeks Treatment,358 ± 51 mg %
same,Body Wt.,Zucker fa/fa rat [4]; 2 weeks Treatment,553 ± 14
same,Serum BUN,Zucker fa/fa rat [4]; 2 weeks Treatment,13 ± 0.5
same,Serum Creatine,Zucker fa/fa rat [4]; 2 weeks Treatment,.42 ± .02
same,Serum K+,Zucker fa/fa rat [4]; 2 weeks Treatment,5.6 ± 0.3
same,Serum Na+,Zucker fa/fa rat [4]; 2 weeks Treatment,141 ± 0.6
same,Serum Glucose,Zucker fa/fa rat [4]; 4 weeks Treatment,156 ± 12
same,Serum HDL,Zucker fa/fa rat [4]; 4 weeks Treatment,87 ± 3
same,Serum T Chol,Zucker fa/fa rat [4]; 4 weeks Treatment,99 ± 5
same,Serum Triglyceride,Zucker fa/fa rat [4]; 4 weeks Treatment,522 ± 82 mg %
same,Serum ALT,Zucker fa/fa rat [4]; 4 weeks Treatment,64 ± 4
same,Serum AST,Zucker fa/fa rat [4]; 4 weeks Treatment,145 ± 13
same,Body Wt.,Zucker fa/fa rat [4]; 4 weeks Treatment,592 ± 15
same,Serum BUN,Zucker fa/fa rat [4]; 4 weeks Treatment,12 ± 0.6
same,Serum Creatine,Zucker fa/fa rat [4]; 4 weeks Treatment,.38 ± .02
same,Serum K+,Zucker fa/fa rat [4]; 4 weeks Treatment,5.8 ± 0.1
same,Serum Na+,Zucker fa/fa rat [4]; 4 weeks Treatment,143 ± 1.1
same,Serum Glucose,Zucker fa/fa rat [4]; 7 weeks Treatment,173 ± 10
same,Serum HDL,Zucker fa/fa rat [4]; 7 weeks Treatment,110 ± 5
same,Serum T Chol,Zucker fa/fa rat [4]; 7 weeks Treatment,120 ± 8
same,Serum Triglyceride,Zucker fa/fa rat [4]; 7 weeks Treatment,422 ± 44 mg %
same,Serum ALT,Zucker fa/fa rat [4]; 7 weeks Treatment,68 ± 2
same,Serum AST,Zucker fa/fa rat [4]; 7 weeks Treatment,126 ± 6
same,Body Wt.,Zucker fa/fa rat [4]; 7 weeks Treatment,660 ± 19
same,Serum BUN,Zucker fa/fa rat [4]; 7 weeks Treatment,11 ± 0.3
same,Serum Creatine,Zucker fa/fa rat [4]; 7 weeks Treatment,.34 ± .02
same,Serum K+,Zucker fa/fa rat [4]; 7 weeks Treatment,5.4 ± 0.2
same,Serum Na+,Zucker fa/fa rat [4]; 7 weeks Treatment,144 ± 0.4
same,Serum Glucose,Zucker fa/fa rat [4]; 10 weeks Treatment,141 ± 10
same,Serum HDL,Zucker fa/fa rat [4]; 10 weeks Treatment,107 ± 10
same,Serum LDL,Zucker fa/fa rat [4]; 10 weeks Treatment,1.4 ± 1.4
same,Serum T Chol,Zucker fa/fa rat [4]; 10 weeks Treatment,123 ± 14
same,Serum Triglyceride,Zucker fa/fa rat [4]; 10 weeks Treatment,430 ± 39 mg %
same,Serum VLDL,Zucker fa/fa rat [4]; 10 weeks Treatment,4 ± 4
same,Serum ALT,Zucker fa/fa rat [4]; 10 weeks Treatment,69 ± 4
same,Serum AST,Zucker fa/fa rat [4]; 10 weeks Treatment,94 ± 2
same,Body Wt.,Zucker fa/fa rat [4]; 10 weeks Treatment,708 ± 26
same,Serum BUN,Zucker fa/fa rat [4]; 10 weeks Treatment,16 ± 1.2
same,Serum Creatine,Zucker fa/fa rat [4]; 10 weeks Treatment,.32 ± .02
same,Serum K+,Zucker fa/fa rat [4]; 10 weeks Treatment,6.6 ± 0.2
same,Serum Na+,Zucker fa/fa rat [4]; 10 weeks Treatment,143 ± 0.8
same,Serum Glucose,Zucker fa/fa rat [4]; 12 weeks Treatment,153 ± 9
same,Serum HDL,Zucker fa/fa rat [4]; 12 weeks Treatment,117 ± 9
same,Serum LDL,Zucker fa/fa rat [4]; 12 weeks Treatment,6 ± 0.4
same,Serum T Chol,Zucker fa/fa rat [4]; 12 weeks Treatment,137 ± 14
same,Serum Triglyceride,Zucker fa/fa rat [4]; 12 weeks Treatment,437 ± 35 mg %
same,Serum VLDL,Zucker fa/fa rat [4]; 12 weeks Treatment,14 ± 5
same,Serum ALT,Zucker fa/fa rat [4]; 12 weeks Treatment,71 ± 6
same,Serum AST,Zucker fa/fa rat [4]; 12 weeks Treatment,115 ± 16
same,Body Wt.,Zucker fa/fa rat [4]; 12 weeks Treatment,722 ± 30
same,Serum Creatine,Zucker fa/fa rat [4]; 12 weeks Treatment,.34 ± .02
same,Serum K+,Zucker fa/fa rat [4]; 12 weeks Treatment,6.4 ± 0.1
same,Serum Na+,Zucker fa/fa rat [4]; 12 weeks Treatment,141 ± 0.6
same,serum ALT vs control,Zucker fa/fa rat [4]; [7],significantly lowered
same,"serum glucose, sodium, or potassium, HCO3, chloride, and BUN levels vs control",Zucker fa/fa rat [4]; in words,no detectable affect
same,serum triglyceride levels vs control,"Zucker fa/fa rat [4]; ten and twelve weeks of treatment, P≦0.001",differences were more remarkable
same,effect on body weight,"Zucker fa/fa rat [4]; vs control, in words",no effect
same,Serum Glucose,Zucker fa/fa rat [4]; [8],147 ± 2
same,Serum HDL,Zucker fa/fa rat [4]; [8],90 ± 3
same,Serum T Chol,Zucker fa/fa rat [4]; [8],91 ± 4
same,Serum Triglyceride,Zucker fa/fa rat [4]; [8],387 ± 41 mg %
same,Body Wt.,Zucker fa/fa rat [4]; [8],359 ± 6
same,Serum BUN,Zucker fa/fa rat [4]; [8],21 ± 0.9
same,Serum Creatine,Zucker fa/fa rat [4]; [8],0.46 ± 0.02
same,Serum K+,Zucker fa/fa rat [4]; [8],6.1 ± 0.2
same,Serum Na+,Zucker fa/fa rat [4]; [8],147 ± 0.2
same,"water consumption, means between groups",Zucker fa/fa rat [5],did not differ
same,"linear slope of body weight versus serum triglycerides, vs control and L-malic acid treated rats",Zucker fa/fa rat [6],differs significantly
same,mean serum triglycerides vs controls,Zucker fa/fa rat [6]; [9],decreased below controls
same,effect on serum lipid levels (hypolipidemic effect),Zucker fa/fa rat [6],significant hypolipidemic effect
"O=C(O)C[C@@H](O)C(=O)O [D-malic acid, D-malic acid, sodium salt]",effect on the metabolism of L-malic acid by mitochondria,liver mitochondria; 20 umoles/5 mL D-malic acid,inhibited
same,transport of L-malic acid into the mitochondria,liver mitochondria; mitochondrial incubations,partially blocks
same,concentrations at which not metabolized by mitochondria,liver mitochondria,less than 40 umoles/5 mL
same,concentrations at which not metabolized by mitochondria,liver mitochondria; converted,< 6.7 mM
same,"linear slope of body weight versus serum triglycerides, vs control and L-malic acid treated rats",Zucker fa/fa rat [6],differs significantly
same,"water consumption, means between groups",Zucker fa/fa rat [6],did not differ
same,mean serum triglycerides compared to controls,"Zucker fa/fa rat [6]; after 12 weeks and beyond of treatment, P≦0.05",lowered
same,mean serum triglycerides vs controls,Zucker fa/fa rat [6]; [9],decreased below controls
same,effect on serum lipid levels (hypolipidemic effect),Zucker fa/fa rat [6],effective
"O=C(O)C[C@H](O)C(=O)O [L-malic acid, L-malic acid, sodium salt, reference compound]",food consumption (rat chow consumed/rat/day) vs control,Zucker fa/fa rat [6]; 6 to 20 weeks of age,tended to eat more rat chow
same,mean serum levels of triglycerides vs control,Zucker fa/fa rat [6]; 8 to 24 weeks of age,no significant difference
same,mean serum total cholesterol vs control,Zucker fa/fa rat [6]; 8 to 24 weeks of age,no significant difference
same,"water consumption, means between groups",Zucker fa/fa rat [6]; sodium salt,Significant differences
same,mean serum triglycerides vs controls,Zucker fa/fa rat [6]; after 24 weeks of age (18 weeks of treatment),greater mean serum triglycerides than controls but not statistically significant
same,mean serum glucose vs control,"Zucker fa/fa rat [6]; only weeks 8 and 16, P≦0.05",sporadically (only weeks 8 and 16) elevated
same,effect on serum lipid levels (hypolipidemic effect),"Zucker fa/fa rat [6]; listed as L-isomer of malic acid, sodium salt",no effect

# Source: patent publication US20040110803A1, “Methods and compositions for the use of D-malic acid to decrease serum triglyceride, cholesterol and lipoprotein levels” (priority 2002, published 2004)
